Data from US20250206738A1, “WRN INHIBITORS” (Nimbus Wadjet, Inc., priority 2023, published 2025).
Where two headings read alike, the source gives them in different places.

Key:
[1] = target: T1, human Werner helicase (WRN, Uniprot Q14191, amino acids 517-1235 with L1074F point mutation; WRN-BV08) (Homo sapiens, UniProt Q14191, L1074F); experiment: WRN (BV08) ADP-Glo assay; assay type: biochemical; settings: WRN-BV08 (aa 517-1235, L1074F); read-out: ADP-Glo_hWRN_IC50
T1 construct: Uniprot Q14191, amino acids 517-1235 with L1074F point mutation; 8xHis (C, cleaved yes); TEV cleavage site (ENLYFQG) (C, cleaved yes); made in house; host or cells: Sf9 insect cells (baculovirus, pFastBac)
Method in brief: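 ADP formed by untagged WRN helicase fragment (aa 517-1235, L1074F; 0.15 nM final) on 0.1 nM DNA duplex with […], 60 min at 25 °C after 15 min compound preincubation, pH 7.5 Bicine buffer. Luminescent ADP-Glo readout; IC50 from 4-parameter fit of % inhibition.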

[2] = system: p21 induction in HCT 116 cells; experiment: p21 induction in cells (In-Cell Western, p21/GAPDH ratio); assay type: cell-based; settings: 24 h compound incubation, read-out: P21_EC50
Protocol: Example 3: Method for Determining Effect on p21 Induction in Cells
The colon carcinoma cell line HCT 116 was obtained from ATCC and cultured in growth medium consisting of Mccoy's 5A Medium (Gibco 16600108) supplemented with 10% FBS (Transgene FS201-02) and 100 units/mL penicillin-streptomycin (Gibco 15140122) and maintained at 37° C. under 5% CO2. On the day of seeding, 2,000 cells in 30 μL of culture media were plated per well to Poly-D-Lysine 384 Well Black Clear Plates (Biocoat 356663) and incubated overnight at 37° C. under 5% CO2. The following day, compounds were serially diluted in DMSO for a total of 11 test concentrations. The typical starting concentration of compounds was 10 μM with 2-fold dilutions. Next, 150 nL of diluted compound was added in duplicate to the assay plate, using an Echo 655 (Labcyte). The plate was centrifuged at 500 RPM for 1 min and then incubated at 37° C. under 5% CO2 for 24 h. After 24h, medium was removed, and cells were fixed by adding 40 μL of 4% paraformaldehyde solution to each well and incubated for 20 min at room temperature. The plate was then washed 4 times with 100 μL per well of wash buffer (PBS with 0.1% Tween-20) using a microplate washer. Next, 30 μL of ice-cold methanol was added to each well and the plate was incubated at −20° C. for 10 min. The plate was washed 4 times with 100 μL per well of wash buffer by a microplate washer, then 30 μL per well of blocking buffer (Intercept PBS blocking buffer (LI-COR 927-70001) with 0.05% Tween-20) was added and the plate was incubated at room temperature with shaking for 2h. Next, to each test well, 20 μL of primary antibody solution (p21 Waf1/CIP (12D1) RabbitmAb (Cell Signaling Technologies 2947) diluted 1:1000 and GAPDH (D4C6R) Mouse mAb (Cell Signaling Technologies 97166) diluted 1:2000 in blocking buffer) was added and the plate was placed at 4° C., overnight. The following day, the plate was washed 5 times with 100 μL per well of wash buffer using a microplate washer for 5 min. 20 μL per well of secondary antibody (IRDye 680CW Goat anti-Mouse IgG (H+L) (LI-COR 926-68070) diluted 1: 2000 in Blocking Buffer and IRDye 800CW Goat anti-Rabbit IgG (H+L) (LI-COR 926-32211) diluted 1: 2000 in Blocking Buffer) was then added and the plate was stored for 2h in the dark at room temperature with shaking. The plate was then washed 4 times with 100 μL per well of wash buffer again using a microplate washer. Finally, the p21 signal and the GAPDH signal were quantified using a LI-COR Odyssey CLx Imager machine reading at 800 nm and 700 nm, respectively. Each plate contained DMSO control (low control) and an internal reference WRN inhibitor (high control) respectively. For quantitation, the 800 nm/700 nm ratio was calculated for each well to give fold p21 induction and then percent activation for each compound well was calculated as follows (100×(ratio cpd well−ratio low control)/(ratio high control−ratio low control)). EC50 values for each compound were generated after non-linear regression curve fitting using commercially available software.

T1 sequence (Q14191 with tags, fused parts or gaps L1074F): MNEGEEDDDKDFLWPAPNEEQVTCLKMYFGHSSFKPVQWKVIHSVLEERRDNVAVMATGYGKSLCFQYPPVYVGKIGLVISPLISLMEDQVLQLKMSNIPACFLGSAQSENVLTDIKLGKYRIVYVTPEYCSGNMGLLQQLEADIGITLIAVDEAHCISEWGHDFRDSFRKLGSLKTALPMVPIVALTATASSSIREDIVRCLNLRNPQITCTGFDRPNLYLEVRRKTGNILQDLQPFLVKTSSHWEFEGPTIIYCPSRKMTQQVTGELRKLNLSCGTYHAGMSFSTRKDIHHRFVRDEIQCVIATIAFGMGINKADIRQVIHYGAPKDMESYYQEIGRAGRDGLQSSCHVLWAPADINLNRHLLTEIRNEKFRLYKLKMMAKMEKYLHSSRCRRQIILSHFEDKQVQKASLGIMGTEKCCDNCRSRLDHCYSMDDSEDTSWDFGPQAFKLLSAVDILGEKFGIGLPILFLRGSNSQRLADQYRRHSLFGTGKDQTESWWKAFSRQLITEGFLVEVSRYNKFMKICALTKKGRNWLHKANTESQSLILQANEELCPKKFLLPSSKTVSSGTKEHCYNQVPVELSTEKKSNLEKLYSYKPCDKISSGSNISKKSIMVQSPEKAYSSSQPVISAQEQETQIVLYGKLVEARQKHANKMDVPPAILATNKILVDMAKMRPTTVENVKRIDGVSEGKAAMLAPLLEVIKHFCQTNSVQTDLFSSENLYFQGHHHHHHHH

Row | IC50 [1] [nM] | EC50 ([2]; Homo sapiens, HCT-116, 24 h) [nM] | EC50 [2] [nM] | Compound
1 | 5 to 50 | 500 to 2000 |  | CCc1c(N2CCN(C(=O)c3ncc4c(c3O)CCO4)CC2)c(=O)n2nc(C3=CCOCC3)nc2n1CC(=O)NC12CC(C(C)C)(C1)C2 [I-15, 2-(2-(3,6-dihydro-2H-pyran-4-yl)-5-ethyl-6-(4-(4-hydroxy-2,3-dihydrofuro[2,3-c]pyridine-5-carbonyl)piperazin-1-yl)-7-oxo-[1,2,4]triazolo[1,5-a]pyrimidin-4(7H)-yl)-N-(3-isopropylbicyclo[1.1.1]pentan-1-yl)acetamide]
2 | 5 to 50 | 2000 to 5000 |  | CCc1c(N2CCN(C(=O)c3ncnc(C)c3O)CC2)c(=O)n2nc(-c3ccnc(OC)c3)nc2n1CC(=O)NC12CC(C(F)(F)F)(C1)C2 [I-4, 2-(5-ethyl-6-(4-(5-hydroxy-6-methylpyrimidine-4-carbonyl)piperazin-1-yl)-2-(2-methoxypyridin-4-yl)-7-oxo-[1,2,4]triazolo[1,5-a]pyrimidin-4(7H)-yl)-N-(3-(trifluoromethyl)bicyclo[1.1.1]pentan-1-yl)acetamide]
3 | 5 to 50 | ≤ 500 |  | CCc1c(N2CCN(C(=O)c3ncnc(C)c3O)CC2)c(=O)n2nc(-c3ccnc(OC)c3)nc2n1CC(=O)NC12CC(C(C)C)(C1)C2 [I-40, 2-(5-ethyl-6-(4-(5-hydroxy-6-methylpyrimidine-4-carbonyl)piperazin-1-yl)-2-(2-methoxypyridin-4-yl)-7-oxo-[1,2,4]triazolo[1,5-a]pyrimidin-4(7H)-yl)-N-(3-isopropylbicyclo[1.1.1]pentan-1-yl)acetamide]
4 | 5 to 50 |  | ≤ 500 | CCc1c(N2CCN(C(=O)c3ncnc(C)c3O)[C@H]3CC[C@@H]32)c(=O)c2nn(C3=CCOC(C)C3)nc2n1CC(=O)NC12CC(C3CC3)(C1)C2 (single isomer, unassigned) [I-170]
5 | 5 to 50 | ≤ 500 |  | CCc1c(N2CCN(C(=O)c3c(O)ccc4ncoc34)CC2)c(=O)n2nc(C3=CCOCC3)nc2n1CC(=O)NC12CC(C3CC3)(C1)C2 [I-29, N-(3-cyclopropylbicyclo[1.1.1]pentan-1-yl)-2-(2-(3,6-dihydro-2H-pyran-4-yl)-5-ethyl-6-(4-(6-hydroxybenzo[d]oxazole-7-carbonyl)piperazin-1-yl)-7-oxo-[1,2,4]triazolo[1,5-a]pyrimidin-4(7H)-yl)acetamide]
6 | 5 to 50 | ≤ 500 |  | CCc1c(N2CCN(C(=O)c3c(O)ccc4ncoc34)CC2)c(=O)n2nc(-c3ccnc(OC)c3)nc2n1CC(=O)NC12CC(C(F)(F)F)(C1)C2 [I-10, 2-(5-ethyl-6-(4-(6-hydroxybenzo[d]oxazole-7-carbonyl)piperazin-1-yl)-2-(2-methoxypyridin-4-yl)-7-oxo-[1,2,4]triazolo[1,5-a]pyrimidin-4(7H)-yl)-N-(3-(trifluoromethyl)bicyclo[1.1.1]pentan-1-yl)acetamide]
7 | 5 to 50 | 2000 to 5000 |  | CCc1c(N2CCN(C(=O)c3ncc4c(c3O)CCO4)CC2)c(=O)n2nc(C3=CCN(C(C)=O)CC3)nc2n1CC(=O)NC12CC(C(F)(F)F)(C1)C2 [I-11, 2-(2-(1-acetyl-1,2,3,6-tetrahydropyridin-4-yl)-5-ethyl-6-(4-(4-hydroxy-2,3-dihydrofuro[2,3-c]pyridine-5-carbonyl)piperazin-1-yl)-7-oxo-[1,2,4]triazolo[1,5-a]pyrimidin-4(7H)-yl)-N-(3-(trifluoromethyl)bicyclo[1.1.1]pentan-1-yl)acetamide]
8 | 100 to 500 | > 5000 |  | CCc1c(N2CCN(C(=O)c3ncnc(C)c3O)CC2)c(=O)n2nc(-c3ccnc(OC)c3)nc2n1CC(=O)NC1CC(C(F)(F)F)C1 (stereo not drawn) [I-27, 2-(5-ethyl-6-(4-(5-hydroxy-6-methylpyrimidine-4-carbonyl)piperazin-1-yl)-2-(2-methoxypyridin-4-yl)-7-oxo-[1,2,4]triazolo[1,5-a]pyrimidin-4(7H)-yl)-N-(3-(trifluoromethyl)cyclobutyl)acetamide]
9 | > 500 | > 5000 |  | CCc1c(N2CCN(C(=O)c3ncnc(C)c3O)CC2)c(=O)n2nc(-c3ccnc(OC)c3)nc2n1CCC(=O)NC12CC(C(F)(F)F)(C1)C2 [I-13, 3-(5-ethyl-6-(4-(5-hydroxy-6-methylpyrimidine-4-carbonyl)piperazin-1-yl)-2-(2-methoxypyridin-4-yl)-7-oxo-[1,2,4]triazolo[1,5-a]pyrimidin-4(7H)-yl)-N-(3-(trifluoromethyl)bicyclo[1.1.1]pentan-1-yl)propanamide]
10 | 5 to 50 | > 5000 |  | CCc1c(N2CCN(C(=O)c3ncnc(C)c3O)CC2)c(=O)n2nc(C3=CCN(C(=O)COC)CC3)nc2n1CC(=O)NC12CC(C3CC3)(C1)C2 [I-18, N-(3-cyclopropylbicyclo[1.1.1]pentan-1-yl)-2-(5-ethyl-6-(4-(5-hydroxy-6-methylpyrimidine-4-carbonyl)piperazin-1-yl)-2-(1-(2-methoxyacetyl)-1,2,3,6-tetrahydropyridin-4-yl)-7-oxo-[1,2,4]triazolo[1,5-a]pyrimidin-4(7H)-yl)acetamide]
11 | 5 to 50 | 500 to 2000 |  | CCc1c(N2CCN(C(=O)c3cccc4ncoc34)CC2)c(=O)n2nc(-c3ccnc(OC)c3)nc2n1CC(=O)NC12CC(C(C)C)(C1)C2 [I-213, 2-(6-(4-(benzo[d]oxazole-7-carbonyl)piperazin-1-yl)-5-ethyl-2-(2-methoxypyridin-4-yl)-7-oxo-[1,2,4]triazolo[1,5-a]pyrimidin-4(7H)-yl)-N-(3-isopropylbicyclo[1.1.1]pentan-1-yl)acetamide]
12 | 100 to 500 | > 5000 |  | CCc1c(N2CCN(C(=O)c3c(O)ccc4ncoc34)CC2)c(=O)n2nc(-c3ccnc(OC)c3)nc2n1CC(=O)NC12CC(C3COC3)(C1)C2 [I-46, 2-(5-ethyl-6-(4-(6-hydroxybenzo[d]oxazole-7-carbonyl)piperazin-1-yl)-2-(2-methoxypyridin-4-yl)-7-oxo-[1,2,4]triazolo[1,5-a]pyrimidin-4(7H)-yl)-N-(3-(oxetan-3-yl)bicyclo[1.1.1]pentan-1-yl)acetamide]
13 | 100 to 500 | 2000 to 5000 |  | CCc1c(N2CCN(C(=O)c3ncnc(C)c3O)[C@H]3CC[C@@H]32)c(=O)c2c(nnn2C2CC2)n1CC(=O)NC12CC(C3CC3)(C1)C2 [I-245, 2-(1-cyclopropyl-5-ethyl-6-((1S,6S)-5-(5-hydroxy-6-methylpyrimidine-4-carbonyl)-2,5-diazabicyclo[4.2.0]octan-2-yl)-7-oxo-1,7-dihydro-4H-[1,2,3]triazolo[4,5-b]pyridin-4-yl)-N-(3-cyclopropylbicyclo[1.1.1]pentan-1-yl)acetamide]
14 | 5 to 50 | 2000 to 5000 |  | CCc1c(N2CCN(C(=O)c3c(OC)ncc(C)c3O)CC2)c(=O)n2nc(C3=CCOCC3)nc2n1CC(=O)NC12CC(C(F)(F)F)(C1)C2 [I-236, 2-(2-(3,6-dihydro-2H-pyran-4-yl)-5-ethyl-6-(4-(4-hydroxy-2-methoxy-5-methylnicotinoyl)piperazin-1-yl)-7-oxo-[1,2,4]triazolo[1,5-a]pyrimidin-4(7H)-yl)-N-(3-(trifluoromethyl)bicyclo[1.1.1]pentan-1-yl)acetamide]
15 | 5 to 50 | 500 to 2000 |  | CCc1c(N2CCN(C(=O)c3ncc4c(c3O)CCO4)CC2)c(=O)n2nc(C3=CCOCC3)nc2n1CC(=O)NC12CC(CC)(C1)C2 [I-14, 2-(2-(3,6-dihydro-2H-pyran-4-yl)-5-ethyl-6-(4-(4-hydroxy-2,3-dihydrofuro[2,3-c]pyridine-5-carbonyl)piperazin-1-yl)-7-oxo-[1,2,4]triazolo[1,5-a]pyrimidin-4(7H)-yl)-N-(3-ethylbicyclo[1.1.1]pentan-1-yl)acetamide]
